Reference: patent US8962648B2, “Tricyclic compounds and PBK inhibitors containing the same” (OncoTherapy Science, Inc., priority 2010, dated 2015)
pIC50: −log10 of the molar value. Counter-ions that a name gives are not always drawn. Like-named read-outs stand apart in the source and are kept apart here.

Key:
A549 cells = assay: Cell-based assay, cellular growth (Cell Counting Kit-8, 72 hours)
Description: (§1) 100 micro-L of cell suspension was seeded onto 96-well microtiter plate (ViewPlate-96FTC, PerkinElmer). […] Cellular growth was determined using Cell Counting Kit-8 (DOJINDO) at 72 hours after the exposure of the candidate inhibitors. […] Accurate IC50 values were calculated as described previously.

T47D cells = assay: as above
Description: as §1

BT-549 cells = assay: as above; conditions: Homo sapiens, BT549 cells
Description: as §1

PBK = PBK (Homo sapiens (Human), UniProt Q96KB5); assay: Kinase assay (IMAP fluorescence polarization, FITC-labeled histone H3 peptide); format: biochemical
Description: PBK activity was determined in the presence or absence of compounds using fluorescein isothiocyanate-labeled (FITC-labeled) histone H3 peptide as a substrate. […] The serially diluted compounds, 0.8 ng/micro-L PBK (Carna Biosciences) and 100 nM FITC-labeled histone H3 peptide were reacted in a reaction buffer (20 mM HEPES, 0.01% Tween-20, 0.3 mM MgCl2, 2 mM dithiothreitol, 50 micro-M ATP, pH 7.4) at room temperature for 1 hour. The reaction was stopped by the addition of three fold assay volume of progressive binding solution. […] IC50 values were calculated by nonlinear four parameter fit using SigmaPlot, version 10.0 (Systat Software, Inc.).

HT-1197 cells = assay: Cell-based assay, cellular growth (Cell Counting Kit-8, 72 hours), PBK-negative control cells
Description: as §1

[1] = PBK 0.8 ng/micro-L, 50 micro-M ATP, 100 nM FITC-labeled histone H3 peptide, room temperature 1 hour

PBK, sequence (Q96KB5 whole entry): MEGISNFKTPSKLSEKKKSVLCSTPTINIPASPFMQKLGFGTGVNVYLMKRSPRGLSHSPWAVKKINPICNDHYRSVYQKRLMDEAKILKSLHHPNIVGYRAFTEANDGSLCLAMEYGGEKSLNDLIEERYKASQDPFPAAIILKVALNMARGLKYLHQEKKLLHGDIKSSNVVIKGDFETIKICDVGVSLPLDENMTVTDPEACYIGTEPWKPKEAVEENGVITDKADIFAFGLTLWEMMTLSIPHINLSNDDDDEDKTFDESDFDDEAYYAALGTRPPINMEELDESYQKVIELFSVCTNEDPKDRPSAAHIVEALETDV

Row | Compound | pIC50 (A549 cells; Homo sapiens, A549, 72 h) | pIC50 (T47D cells; Homo sapiens, T47D, 72 h) | pIC50 (BT-549 cells) | pIC50 (PBK; [1]) | pIC50 (A549 cells; hydrobromide) | pIC50 (T47D cells; hydrobromide) | pIC50 (PBK; PBK 0.8 ng/micro-L, 50 micro-M ATP, 100 nM FITC-labeled histone H3 peptide, room temperature 1 hour, hydrobromide) | pIC50 (HT-1197 cells; Homo sapiens, HT1197, 72 h) | pIC50 (PBK) | pIC50 (HT-1197 cells; HT1197 cells (PBK-negative control), hydrobromide)
1 | NCC(c1ccc(-c2c(O)ccc3[nH]c(=O)c4sccc4c23)cc1)C1CCCC1 (stereo not shown) [Compound 1236, 9-(4-(2-amino-1-cyclopentylethyl)phenyl)-8-hydroxythieno[2,3-c]quinolin-4(5H)-one] | 6.34 | 6.10 | 6.29 | 8.34 | – | – | – | 6.00 | – | –
2 | COc1ccc2[nH]c(=O)c3sccc3c2c1-c1ccc(C(CN)C2CCCC2)cc1 (stereo not shown) [Compound 1239, 9-(4-(2-amino-1-cyclopentylethyl)phenyl)-8-methoxythieno[2,3-c]quinolin-4(5H)-one hydrochloride] | 6.05 | 5.96 | 5.82 | – | – | – | – | 5.77 | 7.64 | –
3 | Cc1cc(O)c(-c2ccc(CC(C)N)cc2)c2c1[nH]c(=O)c1sccc12 (stereo not shown) [Compound 1242, 9-(4-(2-aminopropyl)phenyl)-8-hydroxy-6-methylthieno[2,3-c]quinolin-4(5H)-one hydrochloride] | 6.92 | 6.82 | 6.96 | – | – | – | – | 6.38 | 7.43 | –
4 | CC(C)C(CN)c1ccc(-c2c(O)ccc3[nH]c(=O)c4sccc4c23)cc1 (stereo not shown) [Compound 1252, 9-(4-(1-amino-3-methylbutan-2-yl)phenyl)-8-hydroxythieno[2,3-c]quinolin-4(5H)-one] | 6.80 | 6.68 | 6.60 | 8.85 | – | – | – | 6.38 | – | –
5 | COc1ccc2[nH]c(=O)c3sccc3c2c1-c1ccc(C(CN)C(C)C)cc1 (stereo not shown) [Compound 1253, 9-(4-(1-amino-3-methylbutan-2-yl)phenyl)-8-methoxythieno[2,3-c]quinolin-4(5H)-one hydrochloride] | 6.12 | 6.06 | 5.82 | – | – | – | – | 5.72 | 8.39 | –
6 | COc1cc(C)c2[nH]c(=O)c3sccc3c2c1-c1ccc(C(C)CN)c(F)c1 (stereo not shown) [Compound 1273, 9-(4-(1-aminopropan-2-yl)-3-fluorophenyl)-8-methoxy-6-methylthieno[2,3-c]quinolin-4(5H)-one hydrochloride] | 7.15 | 6.77 | 7.14 | – | – | – | – | 6.70 | 7.40 | –
7 | COc1cc(C)c2[nH]c(=O)c3sccc3c2c1-c1ccc(C(CN)C(C)C)c(F)c1 (stereo not shown) [Compound 1283, 9-(4-(1-amino-3-methylbutan-2-yl)-3-fluorophenyl)-8-methoxy-6-methylthieno[2,3-c]quinolin-4(5H)-one hydrochloride] | 6.25 | 6.25 | 6.60 | 7.33 | – | – | – | 6.28 | – | –
8 | CNCC(C)c1ccc(-c2c(OC)cc(C)c3[nH]c(=O)c4sccc4c23)cc1F (stereo not shown) [Compound 1286, 9-(3-fluoro-4-(1-(methylamino)propan-2-yl)phenyl)-8-methoxy-6-methylthieno[2,3-c]quinolin-4(5H)-one hydrochloride] | 7.02 | 6.66 | 7.03 | – | – | – | – | 6.66 | 7.37 | –
9 | CNCC(C)c1ccc(-c2c(O)cc(C)c3[nH]c(=O)c4sccc4c23)cc1F (stereo not shown) [Compound 1293, 9-(3-fluoro-4-(1-(methylamino)propan-2-yl)phenyl)-8-hydroxy-6-methylthieno[2,3-c]quinolin-4(5H)-one] | 7.46 | 7.28 | 7.49 | 8.05 | – | – | – | 6.72 | – | –
10 | Cc1cc(O)c(-c2ccc(C3CCCNC3)cc2)c2c1[nH]c(=O)c1sccc12 (stereo not shown) [Compound 1302, 8-hydroxy-6-methyl-9-(4-(piperidin-3-yl)phenyl)thieno[2,3-c]quinolin-4(5H)-one hydrochloride] | 6.01 | 6.08 | 6.13 | 7.12 | – | – | – | 5.82 | – | –
11 | Cc1cc(O)c(-c2ccc([C@H](C)CN)c(F)c2)c2c1[nH]c(=O)c1sccc12 [Compound 1303, (S)-9-(4-(1-aminopropan-2-yl)-3-fluorophenyl)-8-hydroxy-6-methylthieno[2,3-c]quinolin-4(5H)-one] | 7.04 | 6.89 | 7.09 | 7.85 | – | – | – | 6.29 | – | –
12 | COc1cc(C)c2[nH]c(=O)c3sccc3c2c1-c1ccc([C@H](C)CN)c(F)c1 [Compound 1310, (S)-9-(4-(1-aminopropan-2-yl)-3-fluorophenyl)-8-methoxy-6-methylthieno[2,3-c]quinolin-4(5H)-one hydrochloride] | 6.43 | 6.10 | 6.40 | – | – | – | – | 6.05 | 7.27 | –
13 | Cc1cc(O)c(-c2ccc([C@@H](C)CN(C)C)c(F)c2)c2c1[nH]c(=O)c1sccc12 [Compound 1311, (R)-9-(4-(1-(dimethylamino)propan-2-yl)-3-fluorophenyl)-8-hydroxy-6-methylthieno[2,3-c]quinolin-4(5H)-one hydrochloride] | 7.35 | 7.15 | 7.43 | – | – | – | – | 6.96 | 7.77 | –
14 | CNC[C@H](C)c1ccc(-c2c(O)cc(C)c3[nH]c(=O)c4sccc4c23)cc1F [Compound 1315, (R)-9-(3-fluoro-4-(1-(methylamino)propan-2-yl)phenyl)-8-hydroxy-6-methylthieno[2,3-c]quinolin-4(5H)-one hydrochloride] | 7.47 | 7.39 | 7.62 | – | – | – | – | 7.00 | 8.09 | –
15 | CNC[C@H](C)c1ccc(-c2c(OC)cc(C)c3[nH]c(=O)c4sccc4c23)cc1F [Compound 1316, (R)-9-(3-fluoro-4-(1-(methylamino)propan-2-yl)phenyl)-8-methoxy-6-methylthieno[2,3-c]quinolin-4(5H)-one hydrochloride] | 7.07 | 6.80 | 7.08 | – | – | – | – | 6.64 | 7.48 | –

Now from value to compound, other results behind:

Row | pIC50 (A549 cells; Homo sapiens, A549, 72 h) | pIC50 (T47D cells; Homo sapiens, T47D, 72 h) | pIC50 (BT-549 cells) | pIC50 (PBK; [1]) | pIC50 (A549 cells; hydrobromide) | pIC50 (T47D cells; hydrobromide) | pIC50 (PBK; PBK 0.8 ng/micro-L, 50 micro-M ATP, 100 nM FITC-labeled histone H3 peptide, room temperature 1 hour, hydrobromide) | Compound | pIC50 (HT-1197 cells; Homo sapiens, HT1197, 72 h) | pIC50 (PBK) | pIC50 (HT-1197 cells; HT1197 cells (PBK-negative control), hydrobromide)
16 | 6.80 | 6.48 | 6.82 | 7.41 | – | – | – | Cc1cc(O)c(-c2ccc(C(C)(C)CN)cc2)c2c1[nH]c(=O)c1sccc12 [Compound 1228, 9-(4-(1-amino-2-methylpropan-2-yl)phenyl)-8-hydroxy-6-methylthieno[2,3-c]quinolin-4(5H)-one hydrochloride] | 6.09 | – | –
17 | 7.35 | 7.01 | 7.18 | 7.74 | – | – | – | Cc1cc(O)c(-c2ccc(C(CN)C(C)C)cc2)c2c1[nH]c(=O)c1sccc12 (stereo not shown) [Compound 1274, 9-(4-(1-amino-3-methylbutan-2-yl)phenyl)-8-hydroxy-6-methylthieno[2,3-c]quinolin-4(5H)-one] | 6.74 | – | –
18 | 6.64 | 6.68 | 6.96 | 7.30 | – | – | – | CNCC(c1ccc(-c2c(O)cc(C)c3[nH]c(=O)c4sccc4c23)cc1)C(C)C (stereo not shown) [Compound 1285, 8-hydroxy-6-methyl-9-(4-(3-methyl-1-(methylamino)butan-2-yl)phenyl)thieno[2,3-c]quinolin-4(5H)-one] | 6.55 | – | –
19 | 6.96 | 7.13 | 7.33 | 7.70 | – | – | – | Cc1cc(O)c(-c2ccc(C(CN)C(C)C)c(F)c2)c2c1[nH]c(=O)c1sccc12 (stereo not shown) [Compound 1288, 9-(4-(1-amino-3-methylbutan-2-yl)-3-fluorophenyl)-8-hydroxy-6-methylthieno[2,3-c]quinolin-4(5H)-one] | 6.85 | – | –
20 | 7.11 | 6.74 | 7.07 | 7.77 | – | – | – | CNCC(c1ccc(-c2c(O)cc(C)c3[nH]c(=O)c4sccc4c23)cc1F)C(C)C (stereo not shown) [Compound 1294, 9-(3-fluoro-4-(3-methyl-1-(methylamino)butan-2-yl)phenyl)-8-hydroxy-6-methylthieno[2,3-c]quinolin-4(5H)-one] | 6.47 | – | –
21 | 7.17 | 6.85 | 7.19 | 7.49 | – | – | – | CNC[C@H](C)c1ccc(-c2c(OC)cc(C)c3[nH]c(=O)c4sccc4c23)cc1 [Compound 1298, (R)-8-methoxy-6-methyl-9-(4-(1-(methylamino)propan-2-yl)phenyl)thieno[2,3-c]quinolin-4(5H)-one hydrochloride] | 6.80 | – | –
22 | 7.70 | 7.40 | 7.68 | 7.82 | – | – | – | COc1cc(C)c2[nH]c(=O)c3sccc3c2c1-c1ccc([C@@H](C)CN)cc1 [Compound 1305, (R)-9-(4-(1-aminopropan-2-yl)phenyl)-8-methoxy-6-methylthieno [2,3-c]quinolin-4(5H)-one hydrochloride] | 7.19 | – | –
23 | – | – | 7.38 | – | 7.24 | 7.07 | 7.74 | CNC[C@H](C)c1ccc(-c2c(O)cc(C)c3[nH]c(=O)c4sccc4c23)cc1 [Compound 1307, (R)-8-hydroxy-6-methyl-9-(4-(1-(methylamino)propan-2-yl)phenyl)thieno [2,3-c]quinolin-4(5H)-one hydrobromide] | – | – | 6.82
